The source of these data is patent US11306081B2, “Phenylacetamides as inhibitors of rock” (BRISTOL-MYERS SQUIBB COMPANY, priority 2017, dated 2022).

This test deals with ROCK2 (Homo sapiens (Human), UniProt O75116). The test can be described thus: ROCK assay (LABCHIP 3000 peptide phosphorylation assay). The conditions noted are these: 5 μM ATP, 1.5 μM peptide substrate, dose-response. The format is biochemical. In a few lines: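 Rho kinase variants in 20 mM HEPES pH 7.5, 20 mM MgCl2, 0.015% Brij-35, 4 mM DTT, 5 μM ATP, 1.5 μM FITC-AHA-AKRRRLSSLRA-OH peptide; DMSO <2%. EDTA-stopped; phosphorylated/non-phosphorylated peptide separated by microfluidic LabChip readout. Dose-response inhibition curve-fitted to give IC50.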
Sequence of ROCK2 (O75116 whole entry, species assumed): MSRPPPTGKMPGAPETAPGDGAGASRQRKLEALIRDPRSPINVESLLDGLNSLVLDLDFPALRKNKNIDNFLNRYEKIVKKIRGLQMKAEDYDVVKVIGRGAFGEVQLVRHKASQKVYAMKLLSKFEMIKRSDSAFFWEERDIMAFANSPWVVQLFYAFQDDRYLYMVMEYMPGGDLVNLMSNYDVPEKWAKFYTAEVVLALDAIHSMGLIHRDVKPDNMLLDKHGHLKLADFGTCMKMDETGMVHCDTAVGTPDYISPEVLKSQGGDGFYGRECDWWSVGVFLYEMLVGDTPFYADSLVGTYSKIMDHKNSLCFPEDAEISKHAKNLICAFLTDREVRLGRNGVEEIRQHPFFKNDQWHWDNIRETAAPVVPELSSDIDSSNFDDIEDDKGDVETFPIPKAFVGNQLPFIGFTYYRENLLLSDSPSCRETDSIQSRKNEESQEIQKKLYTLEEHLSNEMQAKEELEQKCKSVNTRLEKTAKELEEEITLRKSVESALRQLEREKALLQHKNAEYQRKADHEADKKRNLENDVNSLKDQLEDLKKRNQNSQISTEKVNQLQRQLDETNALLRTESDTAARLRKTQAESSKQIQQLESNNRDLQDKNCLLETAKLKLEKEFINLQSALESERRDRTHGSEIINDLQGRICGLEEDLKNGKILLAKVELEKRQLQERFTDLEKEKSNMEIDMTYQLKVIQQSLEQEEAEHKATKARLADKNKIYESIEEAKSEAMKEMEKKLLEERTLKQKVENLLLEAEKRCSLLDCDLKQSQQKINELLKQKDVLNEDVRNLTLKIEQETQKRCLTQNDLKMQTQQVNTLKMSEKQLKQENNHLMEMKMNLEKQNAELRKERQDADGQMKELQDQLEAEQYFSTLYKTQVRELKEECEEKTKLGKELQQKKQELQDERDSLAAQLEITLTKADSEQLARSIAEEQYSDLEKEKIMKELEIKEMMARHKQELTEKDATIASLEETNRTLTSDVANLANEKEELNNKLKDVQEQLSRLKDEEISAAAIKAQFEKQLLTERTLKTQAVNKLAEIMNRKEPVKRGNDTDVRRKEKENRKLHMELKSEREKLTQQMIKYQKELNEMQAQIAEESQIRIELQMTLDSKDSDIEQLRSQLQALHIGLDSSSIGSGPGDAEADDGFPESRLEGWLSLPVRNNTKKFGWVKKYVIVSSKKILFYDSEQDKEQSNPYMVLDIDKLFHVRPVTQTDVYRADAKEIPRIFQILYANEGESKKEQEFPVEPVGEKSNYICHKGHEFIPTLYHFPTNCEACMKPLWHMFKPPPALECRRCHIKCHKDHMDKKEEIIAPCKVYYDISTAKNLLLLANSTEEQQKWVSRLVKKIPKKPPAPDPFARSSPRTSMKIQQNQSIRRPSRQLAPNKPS
`NC(=O)c1cccnc1Oc1ccc(CC(=O)Nc2nc3cc(OCc4ccccc4)ccn3n2)cc1F` [Example 143, 2-(4-(2-((7-(benzyloxy)-[1,2,4]triazolo[1,5-a]pyridin-2-yl)amino)-2-oxoethyl)-2-fluorophenoxy)nicotinamide] gave an IC50 of 6 nM. In the case of `NC(=O)c1cccnc1Oc1ccc(CC(=O)Nc2n[nH]c3ccccc23)cc1Cl` [Example 122, 2-(4-(2-((1H-indazol-3-yl)-amino)-2-oxoethyl)-2-chlorophenoxy)-nicotinamide] it was 97 nM; in that of `Cn1nc(NC(=O)Cc2ccc(Oc3ncccc3C(N)=O)cc2)c2ccccc21` [Example 075, 2-(4-(2-((1-methyl-1H-indazol-3-yl)amino)-2-oxoethyl)phenoxy) nicotinamide], 534 nM.

`NC(=O)c1cccnc1Oc1ccc(CC(=O)Nc2nc3cccc(F)c3n2CC2CC2)cc1F` [Example 164, 2-(4-(2-((1-(cyclopropyl-methyl)-7-fluoro-1H-benzo[d]-imidazol-2-yl)-amino)-2-oxo-ethyl)-2-fluoro-phenoxy)nicotin-amide] had an IC50 of 12 nM. In the case of `NC(=O)c1cccnc1Oc1ccc(CC(=O)Nc2nnc(-c3cccnc3)s2)cc1F` [Example 090, 2-(2-fluoro-4-(2-oxo-2-((5-(pyridin-3-yl)-1,3,4-thiadiazol-2-yl)amino)ethyl)phe-noxy)nicotinamide] it was 419 nM; in that of `COc1cccc2c1nc(NC(=O)Cc1ccc(Oc3ncccc3C(N)=O)c(F)c1)n2CC1CC1` [Example 163, 2-(4-(2-((1-(cyclo-propylmethyl)-4-methoxy-1H-benzo[d]imidazol-2-yl)amino)-2-oxoethyl)-2-fluorophenoxy)-nicotinamide], 16 nM; in that of `CS(=O)(=O)c1ccc2nc(NC(=O)Cc3ccc(Oc4ncccc4C(N)=O)cc3)sc2c1` [Example 076, 2-(4-(2-((6-(methylsulfonyl)benzo[d]thiazol-2-yl)amino)-2-oxoethyl)phenoxy) nicotinamide], 332 nM. In the case of `CC(C)(O)COc1ccc2c(c1)CCc1sc(NC(=O)Cc3ccc(Oc4ncccc4C(N)=O)c(Cl)c3)nc1-2` [Example 113, 2-(2-chloro-4-(2-((7-(2-hydroxy-2-methylpropoxy)-4,5-dihydronaphtho[1,2-d]thiazol-2-yl)amino)-2-oxoethyl)phenoxy)nicotinamide] it was 58 nM; in that of `Cc1cccc(-c2nc(NC(=O)Cc3ccc(Oc4ncccc4C(N)=O)c(Cl)c3)sc2C)n1` [Example 022, 2-(2-chloro-4-(2-((5-methyl-4-(6-methylpyridin-2-yl)thiazol-2-yl)amino)-2-oxoethyl)phenoxy)nicotinamide], 41 nM; in that of `CP(C)(=O)c1ccc2nc(NC(=O)Cc3ccc(Oc4ncccc4C(N)=O)c(F)c3)cn2c1` [Example 149, 2-(4-(2-((6-(dimethyl-phosphoryl)imidazo-[1,2-a]pyridin-2-yl)-amino)-2-oxoethyl)-2-fluorophenoxy)-nicotinamide], 1230 nM. Turning to `CC(C)(O)COc1ccc2nc(NC(=O)Cc3ccc(Oc4ncccc4C(N)=O)c(F)c3)n(CC3CC3)c2c1` [Example 178, 2-(4-(2-((1-(cyclopropylmethyl)-6-(2-hydroxy-2-methylpropoxy)-1H-benzo[d]imidazol-2-yl)amino)-2-oxoethyl)-2-fluorophenoxy)nicotinamide], the IC50 worked out at 14 nM. As for `COCCn1c(NC(=O)Cc2ccc(Oc3ncccc3C(N)=O)c(F)c2)nc2cc(C(N)=O)ccc21` [Example 156, 2-(2-(4-((3-carbamoyl-pyridin-2-yl)oxy)-3-fluorophenyl)-acetamido)-1-(2-methoxyethyl)-1H-benzo[d]-imidazole-5-carboxamide], the figure is 3460 nM.

For the compound `Cc1sc(NC(=O)Cc2ccc(Oc3ncccc3C(N)=O)c(F)c2)nc1-c1ccc(F)cn1` [Example 014, 2-(2-fluoro-4-(2-((4-(5-fluoropyridin-2-yl)-5-methylthiazol-2-yl)amino)-2-oxoethyl)phenoxy)nic-otinamide], it took 96 nM to reach half-maximal inhibition (IC50). As for `COc1ccc2c(c1)CCc1sc(NC(=O)Cc3ccc(Oc4ncccc4C(N)=O)c(Cl)c3)nc1-2` [Example 116, 2-(2-chloro-4-(2-((7-methoxy-4,5-dihydronaphtho[1,2-d]thiazol-2-yl)amino)-2-oxoethyl)phenoxy)nicotinamide], the figure is 8 nM; as for `NC(=O)c1cccnc1Oc1ccc(CC(=O)Nc2nc3c(C(F)(F)F)cccn3n2)cc1F` [Example 141, 2-(2-fluoro-4-(2-oxo-2-((8-(trifluoromethyl)-[1,2,4]triazolo[1,5-a]pyridin-2-yl)amino)ethyl)phenoxy)nicotinamide], 34 nM; as for `NC(=O)c1cccnc1Oc1ccc(CC(=O)Nc2nc3c(F)cccc3n2CC(F)F)cc1F` [Example 169, 2-(4-(2-((1-(2,2-difluoroethyl)-4-fluoro-1H-benzo[d]-imidazol-2-yl)-amino)-2-oxo-ethyl)-2-fluoro-phenoxy)nicotin-amide], 13 nM. As to `COc1ccc2c(c1)CCc1sc(NC(=O)C(C)c3ccc(Oc4ncccc4C(N)=O)cc3)nc1-2` (stereo not drawn) [Example 106, 2-(4-(1-((7-methoxy-4,5-dihydronaphtho[1,2-d]thiazol-2-yl)amino)-1-oxopropan-2-yl)phenoxy)nicotinamide], the IC50 turned out to be 262 nM.

In turn, `NC(=O)c1cccnc1Oc1ccc(CC(=O)N2CCc3cc(OCc4ccccc4)ccc32)cc1` [Example 059, 2-(4-(2-(5-(benzyloxy)indolin-1-yl)-2-oxoethyl)phenoxy) nicotinamide] displayed an IC50 of 98 nM. As for `COc1ccc2nc(NC(=O)Cc3ccc(Oc4ncccc4C(N)=O)cc3)sc2c1` [Example 067, 2-(4-(2-((6-methoxybenzo[d]thiazol-2-yl)amino)-2-oxoethyl)phenoxy) nicotinamide], the figure is 89 nM. As for `NC(=O)c1cccnc1Oc1ccc(CC(=O)Nc2nc3ccccc3n2CC(F)F)cc1F` [Example 111, 2-(4-(2-((1-(2,2-difluoroethyl)-1H-benzo[d]imidazol-2-yl)amino)-2-oxoethyl)-2-fluorophenoxy)nicotinamide], the figure is 37 nM; as for `Cc1cc(-c2ccc3sc(NC(=O)Cc4ccc(Oc5ncccc5C(N)=O)c(F)c4)nc3c2)n(C)n1` [Example 028, 2-(4-(2-((5-(1,3-dimethyl-1H-pyrazol-5-yl)benzo[d]thiazol-2-yl)amino)-2-oxoethyl)-2-fluorophenoxy)nicotin-amide], 30 nM. In the case of `Cc1sc(NC(=O)Cc2ccc(Oc3ncccc3C(N)=O)c(F)c2)nc1-c1ccc(F)nc1` [Example 085, 2-(2-fluoro-4-(2-((4-(6-fluoropyridin-3-yl)-5-methylthiazol-2-yl)amino)-2-oxoethyl)phenoxy) nicotinamide] it was 176 nM; in that of `NC(=O)c1cccnc1Oc1ccc(CC(=O)Nc2nc3cc(F)ccn3n2)cc1F` [Example 142, 2-(2-fluoro-4-(2-((7-fluoro-[1,2,4]triazolo[1,5-a]pyridin-2-yl)amino)-2-oxoethyl)phenoxy)nicotinamide], 72 nM; in that of `NC(=O)c1cccnc1Oc1ccc(CC(=O)Nc2nc3ccc(C(F)(F)F)cc3n2CC2CC2)cc1F` [Example 175, 2-(4-(2-((1-(cyclopropyl-methyl)-6-(trifluoro-methyl)-1H-benzo[d]-imidazol-2-yl)amino)-2-oxoethyl)-2-fluorophenoxy)-nicotinamide], 44 nM.

A word on the IC50: it is the concentration at which inhibition is half-maximal. A higher IC50 goes with weaker potency.
